This assay deals with MDA-MB-468 breast. The assay can be described thus: inhibition of tumour cell growth, NCI panel, 48 h.

Where “and” joins values, the source holds several entries; their conditions need not be identical. Equal entries are not always repeated.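 A five-concentration, 48-hour dose response in 96-well plates underlies each endpoint, interpolated linearly between surrounding concentrations. At the GI50, growth is halved. TGI: total growth inhibition.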

`C=C(C)[C@@H]1CC[C@]2(C(=O)NCCNCCNCCN)CC[C@]3(C)[C@H](CC[C@@H]4[C@@]5(C)CCC(=O)C(C)(C)[C@@H]5CC[C@]43C)[C@@H]12`: the GI50 was 8090 nM and the TGI stood at 16100 nM.
With `COc1ccc(-c2nc3sc4c(c3c(=O)[nH]2)CCCC4)c2ccccc12`, the GI50 was 1420 nM; the TGI was 5550 nM and 8960 nM.
For the molecule `COc1cc(OC)cc(-c2cncn2-c2ccc(-c3nc4cc(OC)cc(OC)c4s3)cc2)c1`, the GI50 is 3170 nM and the TGI is over 100000 nM.
In the case of `CCN1CCC(CC(=O)Nc2n[nH]c3nc(-c4cccs4)c(Br)cc23)CC1`, the GI50 is 4530 nM and the TGI is 10800 nM.
For `N=C(N)c1ccc(-c2ccc(-c3ccc(F)cc3)o2)o1`, the GI50 was 1360 nM and the TGI was 3000 nM.
As for `COC1[C@@H]2C[C@H]3C(C)(C)O[C@@](C/C=C(/C)C(=O)O)(C2=O)[C@]32Oc3c(CC=C(C)C)c4c(c(O)c3C(=O)[C@H]12)C=CC(C)(C)O4` (stereo not given in full), the GI50 is 7460 nM and the TGI was 25000 nM.
On the same counts, the results for `Nc1ccc(-n2c(=O)oc3ccc(Cl)cc3c2=O)c(Cl)c1` are 90.3 nM and 383 nM.
For `O=C1OCC2=C1C(c1cccc(C(F)(F)F)c1)c1cc3c(cc1N2CCO)CCC3` (stereo not given), the GI50 is 127 nM and the TGI came to 1200 nM.
In the case of `COc1ccc(-c2cc(-c3nnc(SCC(=O)Nc4ccc(C(C)=O)cc4)o3)c3ccccc3n2)cc1`, the GI50 was over 100000 nM and the TGI is over 100000 nM.
Consider `CNCCOC(=O)/C=C1/CCC2C(C(O)CC3C(C)(C(=O)OC)CCCC23C)C1C` (stereo not given), for which the GI50 is 37.7 nM and the TGI stood at 148 nM.
On to `Nc1nc(-c2cccc([N+](=O)[O-])c2)c(N=Nc2ccc([N+](=O)[O-])cc2Cl)s1`, for which the GI50 is 131 nM and the TGI is 711 nM.
As for `Oc1cc(Cl)ccc1Cc1ccc(Cl)cc1O`, the GI50 is 11700 nM and the TGI is 35500 nM.
For the molecule `Cc1ccc(Oc2nc3ccccc3cc2-c2nnc(Cn3c(COc4ccccc4)nc4ccccc43)o2)cc1`, the GI50 is 3950 nM and the TGI amounted to 18300 nM.
On to `Cc1ccc(-c2cc3nc(C(Cl)Cl)nc(-c4ccco4)n3n2)cc1`, for which the GI50 was 566 nM and the TGI was found to be 3050 nM.
Turning to `C[C@@H]1COC(Nc2ccc3ncnc(Nc4ccc(OCc5nccs5)c(Cl)c4)c3c2)=N1`, the GI50 is 181 nM and 39.6 nM; the TGI is 1590 nM and 294 nM.
Regarding `Oc1ccc(CN(Cc2ccc(C(F)(F)F)cc2)Cc2ccc(O)c3ncccc23)c2cccnc12`, the GI50 is 23.6 nM and the TGI came out at 2230 nM.
In the case of `Cc1cc(C)c2c(N)c3cccc(C)c3nc2n1`, the GI50 was 1280 nM and the TGI stood at 3370 nM.
The corresponding values for `CCCn1cnc2c(c1=N)C(c1ccc(OC)cc1)c1sc3c(C)cccc3c1O2` (stereo not given) are 360 nM and 13400 nM.
Take `COc1cc(-c2n/c(=C\c3c(O)[nH]c4ccccc34)cc3c2=Nc2ccccc2-3)cc(OC)c1OC`: the GI50 was 2570 nM and the TGI was determined as 7740 nM.
For the molecule `CC(C)CCC[C@@H](C)[C@H]1CCC2C3=CCC4C(=O)C=CC(=O)C4C3CC[C@@]21C` (stereo not given in full), the GI50 is 215 nM and the TGI was found to be 570 nM.
On to `O=C(Nc1cccc(-n2ccc3c(NC(=O)c4ccccc4)nccc32)c1)c1cc(N2CCOCC2)cc(C(F)(F)F)c1`, for which the GI50 is 48.4 nM and the TGI was found to be 1420 nM.
Regarding `CCC(=O)c1ccc2c(c1)N(CCCN1CCN(CCO)CC1)c1ccccc1S2`, the GI50 was 10500 nM and the TGI was determined as 23500 nM.
On to `COc1ccc(/C=C\c2cc(OC)c(OC)c(OC)c2)cc1OCC(=O)Nc1nc2ccc(OC(F)(F)F)cc2s1`, for which the GI50 is 2300 nM and the TGI came to 6880 nM.
Consider `Cc1ccccc1C(C(=O)NC1CCCCC1)N(C(=O)Cn1ccnc1C)c1cccc(F)c1` (stereo not given), for which the GI50 was over 100000 nM and the TGI is over 100000 nM.
For the molecule `CC(=O)NC1=CC(=O)c2cc(C)cc(O)c2C1=O`, the GI50 was 1870 nM and the TGI came to 5980 nM.
On the same counts, the results for `COC(=O)[C@@H]1CCCN1C(=O)[C@H]1CCCN1C(=O)[C@@H](Cc1c[nH]c2ccccc12)NC(=S)Nc1cc(C(F)(F)F)cc(C(F)(F)F)c1` are 2150 nM and 6940 nM.
As to `COc1cc2ncn(-c3cc(OCc4ccccc4S(C)(=O)=O)c(C#N)s3)c2cc1OC`, the GI50 was over 25000 nM and the TGI is over 25000 nM.
As to `Cc1ccc(C[P+](c2ccccc2)(c2ccccc2)c2ccccc2)cc1`, the GI50 is 172 nM and the TGI was 1190 nM.
Consider `Cc1cc(NC(=O)NC(=O)c2ccccc2NC(=O)CN)ccc1Oc1ncc(Br)cn1`, for which the GI50 is 65 nM and the TGI was determined as 36800 nM.
On to `O=[N+]([O-])/C=C/c1ccc([N+](=O)[O-])cc1`, for which the GI50 is 1510 nM and the TGI turned out to be 3300 nM.
On the same counts, the results for `N/C(=N\c1nc2ccccc2s1)NC(=O)Nc1cccc2ccccc12` are 372 nM and 22700 nM.
With `Cc1ccc(F)cc1NC(=O)c1cc(Cl)ccc1Nc1ccccc1`, the GI50 is over 100000 nM and the TGI is over 100000 nM.
In the case of `CCCCCCCCCCCCCCCCn1cc[n+](Cc2ccccc2)c1C`, the GI50 was 305 nM and the TGI stood at 840 nM.
For the molecule `O=C(/C=C\c1ccc2ccccc2n1)c1cc(Cl)ccc1O`, the GI50 is 5100 nM and the TGI was 19700 nM.
The corresponding values for `O=[N+]([O-])c1cccc(-c2cc(-c3cc(Br)ccc3O)[nH]n2)c1` are 1470 nM and 21100 nM.
Regarding `COc1ccc2[nH]cc(-c3nc(-c4c[nH]c5ccncc45)cs3)c2c1`, the GI50 was 1780 nM and the TGI was 3670 nM.
The corresponding values for `COc1ccc(-c2csc3c2-n2cccc2C3=O)cc1O` are 397 nM and 2430 nM.
Consider `CCCCCCN1CCN(Cc2ccc(N(CC)CC)cc2)C(=O)C1=O`, for which the GI50 was 1590 nM and the TGI worked out at 16100 nM.
`COc1ccc(-c2ccccc2)cc1-c1c(Nc2cc(Cl)cc(Cl)c2O)c(=O)c1=O`: the GI50 was 1130 nM and the TGI amounted to 3910 nM.
As to `Cc1cc2nc3c4cccc(O)c4n(CCN(C)C)c3nc2cc1C`, the GI50 was 2560 nM and the TGI was found to be 8190 nM.

For the origin of these results see PubChem BioAssay (NCI).
